Measured values reported in patent US20240245677A1, “SELECTED COMPOUNDS FOR TARGETED DEGRADATION OF BRD9” (C4 THERAPEUTICS, INC., priority 2021, published 2024).
Converted amounts (≈) assume the structure as drawn. Where two headings read alike, the source gives them in different places.

Assays:
[1] = tested on: Yamato-SS synovial sarcoma cell line; test: Global proteomics in Yamato-SS cells; type: cell-based, human; conditions: 100 nM, 4 hours; for Emax at 0.1 µM: Homo sapiens
Description: Global protein expression was performed in Yamato-SS and HSSYII synovial sarcoma cell lines after 4-hour treatment with Compound 1 (100 nM). The Yamato-SS cell line was provided by the RIKEN BRC through the National BioResource Project of the MEXT/AMED, Japan (cat #RCB3577), and the HS-SY-II cell line was provided by the RIKEN BRC through the National BioResource Project of the MEXT/AMED, Japan (cat #RCB2231).
Both Yamato-SS and HSSYII cell lines were treated with Compound 1 at 100 nM for 4 hours and analyzed by multiplexed quantitative proteomics. The x-axis illustrates the totality of the proteomics data and is labeled as fold change (FC) of Compound 1 vs vehicle in a Log 2 transformation scale. The statistical significance (T-test of treated vs. DMSO with Benjamini-Hochberg correction applied) of the observed changes is shown in the y-axis as negative Log 10 of the P-value. The horizontal dashed line marks the statistical significance (P-value ≤0.001) and the vertical line marks fold change ≥2.

GSPT1 = target: T1, GSPT1 (Homo sapiens, UniProt P15170+Q96SW2); test: GSPT1 HiBiT degradation assay in HEK293T.114 cells; type: cell-based; conditions: 6 hours
T1 construct: CRISPR-edited to endogenously express HiBiT tagged GSPT1; host or cells: HEK293T.114
Text: This assay evaluated the off-target degradation of the cereblon neosubstrate, Eukaryotic peptide chain release factor GTP-binding subunit ERF3A (GSPT1), induced by treatment with Compound 1 as measured by luminescence using Nano-Glo HiBiT® Lytic Assay System in 293T cells CRISPR-edited to endogenously express HiBiT tagged GSPT1.
Nano-Glo® HiBiT Lytic Assay System was purchased from Promega (Catalog No. N3050, Madison, WI, USA). HEK293T cells were obtained from ATCC (Catalog No. CRL-3216, Manassas, VA, USA), and maintained in DMEM medium (Catalog No. 11995065, ThermoFischer Scientific, Waltham, MA, USA) supplemented with 10% heat inactivated FBS (Catalog No. 16000-044, Gibco, Grand Island, NY, USA) at 37° C. in an atmosphere of 5% CO2 in air. The HiBiT polypeptide tag was introduced into the N-terminus of the endogenous GSPT1 locus by CRISPR-Cas9 to produce the HEK293T.114 modified cell line. The HiBiT polypeptide allows reconstitution of NanoBiT enzyme following cell lysis and addition of the complementing LgBiT polypeptide that activates substrate to produce a luminescent signal that is directly proportional to the amount of HiBiT-tagged GSPT1.
HEK293T.114 cells were routinely sub-cultured to maintain cell density between 30-80% confluence, not to exceed 20 passages. Cells were washed with PBS, trypsinized for 5 minutes at 37° C., and resuspended in fresh growth media without phenol red. An aliquot was diluted 2× with Trypan Blue solution 0.4% (Catalog No. 15250061, ThermoFisher Scientific, Waltham, MA, USA) and cell count determined. Cell concentration was adjusted with growth media without phenol red to 2×10^5 cells/mL.
The 10 mM DMSO stock solutions of Compound 1 or CC0885 were serially diluted (half log) in DMSO to generate 11-point dose series (10000, 3160, 1000, 316, 100, 31.6, 10, 3.2, 1, 0.32, 0.1 μM) in an acoustic ready 384-well low dead volume microplate (Catalog No. LP-0200, Beckman Coulter Life Sciences, Indianapolis, IN, USA). Using an Echo 550 Acoustic Liquid Handler (Beckman Coulter Life Sciences, Indianapolis, IN, USA), 30 nL of serially diluted compound solutions were dispensed in duplicate to each 384-well black TC-treated microplate (Catalog No. 3571, Corning, Glendale, CA, USA). 30 nL DMSO was transferred to all control wells.
30 μL of HEK293T.114 cells suspended in growth media without phenol red at 2×10^5 cells/mL (6000 cells/well) were dispensed using a Multidrop Combi Reagent Dispenser (Catalog No. 5840300, ThermoFisher Scientific, Waltham, MA, USA) to each well of columns 1-23 of 384-well black TC-treated microplates containing duplicate concentration range of test compounds and DMSO controls. 30 μL of media was dispensed to column 24 as background positive control (P). Plates were spun briefly at 1000 rpm and cells were incubated at 37° C., 5% CO2 for 6 hours. Final concentration of DMSO was 0.1% for all samples.
Cellular GSPT1 protein level was determined based on quantification of HiBiT using Nano-Glo® HiBiT Lytic Assay System (Promega). 30 μL Nano-Glo Lytic Assay reagents were added to each well of columns 1-23 and luminescence was acquired on EnVision® Multilabel Reader (Catalog No. 2104-0010, Perkin Elmer Inc., Dumfries, VA, USA). Column 24 (cells without Nano-Glo reagent addition) was used as plate background or positive control (P). Cells treated in the absence of the test compound (0.1% DMSO vehicle) were the negative control (N)/
Percent response of compound-treated samples (T) were calculated by normalizing to the DMSO treated negative (N) controls on the same microtiter plate after background (i.e., positive control) signal subtraction:
Curve fit and DC50 (concentration that degrades 50% GSPT1) determination was performed by 4 parametric logistic fit analysis using software such as GraphPad Prism software (GraphPad Software, LLC, San Diego, CA, USA). […]

[2] = Approximate solubility in solvents at 25° C. and 50° C. (visual observation); type: physicochemical; conditions: thermodynamic from solid, 25° C., target conc. = 250 mg/mL
Description: Max. volume of each solvent added was 1 mL. Approximate solubility was determined by visual observation.
Max volume of each solvent added was 1 mL. Approximate solubility was determined by visual observation.

T1 sequence (P15170 whole entry): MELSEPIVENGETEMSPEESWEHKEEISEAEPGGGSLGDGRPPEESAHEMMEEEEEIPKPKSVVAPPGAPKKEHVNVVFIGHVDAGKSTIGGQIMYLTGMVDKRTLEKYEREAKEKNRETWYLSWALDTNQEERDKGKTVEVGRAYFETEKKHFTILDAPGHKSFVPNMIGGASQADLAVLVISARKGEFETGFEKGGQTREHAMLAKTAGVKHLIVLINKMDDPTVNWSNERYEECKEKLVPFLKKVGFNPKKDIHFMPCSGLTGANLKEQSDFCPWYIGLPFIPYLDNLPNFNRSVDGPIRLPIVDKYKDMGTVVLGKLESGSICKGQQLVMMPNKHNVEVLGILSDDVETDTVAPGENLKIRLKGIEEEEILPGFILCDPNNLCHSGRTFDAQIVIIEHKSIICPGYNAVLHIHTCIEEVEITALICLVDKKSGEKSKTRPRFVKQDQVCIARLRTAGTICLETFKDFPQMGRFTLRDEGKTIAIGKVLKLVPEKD
T1 sequence (Q96SW2 whole entry): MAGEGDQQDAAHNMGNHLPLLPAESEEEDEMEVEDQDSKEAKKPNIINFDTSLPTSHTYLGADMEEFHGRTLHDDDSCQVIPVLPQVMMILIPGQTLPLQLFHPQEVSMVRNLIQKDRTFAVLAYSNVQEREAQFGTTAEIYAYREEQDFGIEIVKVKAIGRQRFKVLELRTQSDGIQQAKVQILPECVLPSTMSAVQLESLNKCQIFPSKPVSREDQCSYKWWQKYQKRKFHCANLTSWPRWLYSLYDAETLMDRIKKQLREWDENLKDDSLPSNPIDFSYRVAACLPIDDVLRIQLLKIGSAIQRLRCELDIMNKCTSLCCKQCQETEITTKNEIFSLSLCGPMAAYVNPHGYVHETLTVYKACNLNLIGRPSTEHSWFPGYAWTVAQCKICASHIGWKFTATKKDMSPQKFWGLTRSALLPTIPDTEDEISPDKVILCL
T1 sequence (Q16531 2-1140 partner limits assumed): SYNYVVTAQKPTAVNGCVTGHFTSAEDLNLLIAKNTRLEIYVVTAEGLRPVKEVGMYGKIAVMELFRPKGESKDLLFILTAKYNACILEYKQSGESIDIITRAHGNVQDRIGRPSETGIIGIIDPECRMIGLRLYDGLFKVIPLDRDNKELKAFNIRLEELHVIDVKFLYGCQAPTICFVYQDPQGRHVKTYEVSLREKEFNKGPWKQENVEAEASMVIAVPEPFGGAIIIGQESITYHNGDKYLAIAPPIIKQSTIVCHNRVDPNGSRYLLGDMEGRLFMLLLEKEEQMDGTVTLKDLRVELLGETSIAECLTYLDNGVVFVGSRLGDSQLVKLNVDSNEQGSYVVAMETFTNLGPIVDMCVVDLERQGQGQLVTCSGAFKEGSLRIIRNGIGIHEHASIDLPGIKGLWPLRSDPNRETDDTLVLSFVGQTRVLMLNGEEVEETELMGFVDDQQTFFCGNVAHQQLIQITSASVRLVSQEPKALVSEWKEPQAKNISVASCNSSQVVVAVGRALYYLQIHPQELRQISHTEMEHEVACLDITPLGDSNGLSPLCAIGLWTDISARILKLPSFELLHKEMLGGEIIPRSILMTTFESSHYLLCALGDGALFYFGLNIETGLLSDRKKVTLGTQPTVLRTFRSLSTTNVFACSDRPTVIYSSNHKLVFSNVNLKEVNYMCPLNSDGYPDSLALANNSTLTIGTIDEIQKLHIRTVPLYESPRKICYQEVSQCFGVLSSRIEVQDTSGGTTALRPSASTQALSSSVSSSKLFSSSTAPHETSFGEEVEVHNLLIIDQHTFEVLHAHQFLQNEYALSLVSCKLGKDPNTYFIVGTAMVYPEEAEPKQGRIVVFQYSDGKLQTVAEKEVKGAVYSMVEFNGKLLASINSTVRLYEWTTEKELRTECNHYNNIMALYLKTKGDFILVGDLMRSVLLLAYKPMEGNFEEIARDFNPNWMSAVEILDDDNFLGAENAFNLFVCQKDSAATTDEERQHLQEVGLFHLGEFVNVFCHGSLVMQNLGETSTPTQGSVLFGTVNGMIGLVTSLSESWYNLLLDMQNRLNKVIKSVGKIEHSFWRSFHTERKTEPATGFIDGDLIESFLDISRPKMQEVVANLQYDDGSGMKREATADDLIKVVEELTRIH

COc1cc(-c2cn(C)c(=O)c(C)c2C)cc(OC)c1CN1CC[C@H](N2CCN(c3ccc(N[C@H]4CCC(=O)NC4=O)cc3F)CC2)C(F)(F)C1 [Compound 1, (S)-3-((4-(4-((S)-1-(2,6-dimethoxy-4-(1,4,5-trimethyl-6-oxo-1,6-dihydropyridin-3-yl)benzyl)-3,3-difluoropiperidin-4-yl)piperazin-1-yl)-3-fluorophenyl)amino)-piperidine-2,6-dione]
ADAMST1 protein level decrease vs DMSO control [1]: 66.3% | BRD9 protein level decrease vs DMSO control [1]: 66.5% | Emax at 0.1 µM ([1]; read-out: ADAMST1 Emax): 33.7% | Emax at 0.1 µM ([1]; read-out: BRD9 Emax): 33.5% | % GSPT1 Remaining, Mean (GSPT1; 0.100 nM): 97.4% | % GSPT1 Remaining, Mean (GSPT1; 0.316 nM): 86.7% | % GSPT1 Remaining, Mean (GSPT1; 1.00 nM): 70.8% | % GSPT1 Remaining, Mean (GSPT1; 3.15 nM): 34.4% | % GSPT1 Remaining, Mean (GSPT1; 10.0 nM): 12.4% | % GSPT1 Remaining, Mean (GSPT1; 31.5 nM): 6.0% | % GSPT1 Remaining, Mean (GSPT1; 100 nM): 4.0% | % GSPT1 Remaining, Mean (GSPT1; 317 nM): 3.5% | % GSPT1 Remaining, Mean (GSPT1; 1000 nM): 3.2% | % GSPT1 Remaining, Mean (GSPT1; 3161 nM): 3.0% | % GSPT1 Remaining, Mean (GSPT1; 9990 nM): 3.8% | DC50 (GSPT1; GSPT1-HiBiT, HEK293T.114 cells, read-out: Geometric Mean DC50): > 10 µM | Emax (GSPT1; GSPT1-HiBiT, HEK293T.114 cells, read-out: Mean Emax (%) ± SD): 93.9 ± 5.85% | effect on degradation of GSPT1 (GSPT1; concentrations up to 10 μM): no significant effect | Solubility ([2]; organic solvent or mixture, Acetone): 17000 to 25000 µg/mL (≈ 23.9 to 35.2 mM) | Solubility ([2]; organic solvent or mixture, Acetonitrile): 6000 to 7000 µg/mL (≈ 8.44 to 9.85 mM) | Solubility ([2]; organic solvent or mixture, Ethanol): 5000 to 6000 µg/mL (≈ 7.03 to 8.44 mM) | Solubility ([2]; organic solvent or mixture, Ethyl acetate): 5000 to 6000 µg/mL (≈ 7.03 to 8.44 mM) | Solubility ([2]; organic solvent or mixture, Heptane): < 5000 µg/mL | Solubility ([2]; organic solvent or mixture, MTBE (Methyl tert-butyl ether)): < 5000 µg/mL | Solubility ([2]; organic solvent or mixture, Methanol): 10000 to 17000 µg/mL (≈ 14.1 to 23.9 mM) | Solubility ([2]; organic solvent or mixture, Methanol/water (v:v = 95:5)): 8000 to 13000 µg/mL (≈ 11.3 to 18.3 mM) | Solubility ([2]; organic solvent or mixture, THF (Tetrahydrofuran)): > 250000 µg/mL | Solubility ([2]; Water): < 5000 µg/mL
